Measured values published in patent publication US20240059691A1 (KALVISTA PHARMACEUTICALS LIMITED, priority 2020, published 2024).

Key:
Human Factor XIIa = Human Factor XIIa (Homo sapiens (Human), UniProt P00748); test: Determination of FXIIa inhibition (fluorogenic substrate H-DPro-Phe-Arg-AFC, IC50 assay); type: biochemical; details: substrate H-DPro-Phe-Arg-AFC at Km, 25° C.; class scale A-G
How it was run: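 Human FXIIa incubated at 25° C with fluorogenic substrate H-DPro-Phe-Arg-AFC at its Km concentration and varying compound concentrations. Fluorescence release monitored over 5 min at 25° C; linear rate expressed as % of uninhibited activity to derive IC50.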

Plasma Kallikrein = Plasma Kallikrein (Homo sapiens (Human), UniProt P03952); test: Determination of related protease inhibition: Plasma Kallikrein (fluorogenic substrate at Km); type: biochemical; details: 25° C., read-out: IC50 (human PKal)
Experimental: Determination of Related Protease Inhibition
In vitro inhibition of related proteases was determined using an ([…] assay based on standard literature methods (see e.g. Shori et al., Biochem. Pharmacol., 1992, 43, 1209; Bouckaert et al., European Journal of Medicinal Chemistry 110 (2016) 181). Human serine protease enzymes Plasma Kallikrein, KLK1, FXa, Plasmin, Thrombin and Trypsin were assayed for enzymatic activity using an appropriate fluorogenic substrate at Km concentration, FXIa at fixed substrate concentration of 100 μM, and various concentrations of the test compound. Protease activity was measured by monitoring the accumulation of liberated fluorescence from the substrate over […]. The linear rate of fluorescence increase per minute was expressed as percentage (%) activity. IC50 values were calculated as the concentration of inhibitor giving 50% inhibition of the uninhibited enzyme activity (100%).

Sequence of Human Factor XIIa (P00748 373-615): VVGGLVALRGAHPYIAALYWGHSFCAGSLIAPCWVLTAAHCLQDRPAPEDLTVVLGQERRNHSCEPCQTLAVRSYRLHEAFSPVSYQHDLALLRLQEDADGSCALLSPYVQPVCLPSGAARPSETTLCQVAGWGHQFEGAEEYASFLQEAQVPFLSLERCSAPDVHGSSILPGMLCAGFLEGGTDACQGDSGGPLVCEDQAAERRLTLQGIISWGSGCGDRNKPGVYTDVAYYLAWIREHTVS
Sequence of Plasma Kallikrein (P03952 391-638): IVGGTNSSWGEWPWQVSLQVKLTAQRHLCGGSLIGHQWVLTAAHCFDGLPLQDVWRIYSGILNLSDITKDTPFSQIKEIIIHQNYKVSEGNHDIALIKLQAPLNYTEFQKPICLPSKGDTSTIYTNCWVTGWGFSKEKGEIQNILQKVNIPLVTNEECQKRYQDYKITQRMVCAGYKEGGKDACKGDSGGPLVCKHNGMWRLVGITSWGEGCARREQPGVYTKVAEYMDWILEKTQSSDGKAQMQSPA
Sequence of Plasma Kallikrein (P03952 20-390 partner): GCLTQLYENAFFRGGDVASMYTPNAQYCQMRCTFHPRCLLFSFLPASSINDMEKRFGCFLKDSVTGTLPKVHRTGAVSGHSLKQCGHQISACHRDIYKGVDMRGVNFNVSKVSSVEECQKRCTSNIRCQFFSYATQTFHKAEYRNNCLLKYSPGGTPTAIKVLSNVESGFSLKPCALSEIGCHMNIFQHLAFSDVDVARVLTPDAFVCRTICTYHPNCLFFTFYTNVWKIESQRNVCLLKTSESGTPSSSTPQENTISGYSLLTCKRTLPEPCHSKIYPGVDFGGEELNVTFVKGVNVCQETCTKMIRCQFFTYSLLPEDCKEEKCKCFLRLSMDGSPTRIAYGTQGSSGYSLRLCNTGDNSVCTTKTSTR

SMILES	IC50 (Human Factor XIIa)	IC50 (Plasma Kallikrein)
Nc1nccc2c(NCc3ccc(N4CCn5nccc5C4)nc3)cccc12 [Example 1156, N5-((6-(6,7-dihydropyrazolo[1,5-a]pyrazin-5(4H)-yl)pyridin-3-yl)methyl)isoquinoline-1,5-diamine]	10 to 40 µM	> 40 µM
Nc1nccc2c(NCc3ccc(NCCc4nccn4C(F)F)nc3)cccc12 [Example 1181, N5-((6-((2-(1-(difluoromethyl)-1H-imidazol-2-yl)ethyl)amino)pyridin-3-yl)methyl)isoquinoline-1,5-diamine]	10 to 40 µM	> 40 µM
Nc1ncc(Cl)c2cc(NCc3ccc(NCCc4nccn4C(F)F)nc3)ccc12 [Example 1182, 4-chloro-N6-((6-((2-(1-(difluoromethyl)-1H-imidazol-2-yl)ethyl)amino)pyridin-3-yl)methyl)isoquinoline-1,6-diamine]	10 to 40 µM	> 40 µM
CN1CCC(CNc2ccc(CNc3ccc4cccnc4c3)cn2)CC1 [Example 1184, N-((6-(((1-methylpiperidin-4-yl)methyl)amino)pyridin-3-yl)methyl)quinolin-7-amine]	10 to 40 µM	> 100 µM
Nc1ncc(Cl)c2cc(NCc3ccc(NCc4nccn4C(F)F)nc3)ccc12 [Example 1185]	10 to 40 µM	> 40 µM
CN1CCC(CNc2ccc(CNc3ccc4cncc(Cl)c4c3)cn2)CC1 [Example 1188, 4-chloro-N-((6-(((1-methylpiperidin-4-yl)methyl)amino)pyridin-3-yl)methyl)isoquinolin-6-amine]	40 to 100 µM	> 100 µM
CN1CCC(CNc2ccc(CNc3cnc4nccnc4c3)cn2)CC1 [Example 1189, N-((6-(((1-methylpiperidin-4-yl)methyl)amino)pyridin-3-yl)methyl)pyrido[2,3-b]pyrazin-7-amine]	40 to 100 µM	> 40 µM
CN1CCC(CNc2ccc(CNc3ccc4cncc(N5CCCCC5)c4c3)cn2)CC1 [Example 1198, N-((6-(((1-methylpiperidin-4-yl)methyl)amino)pyridin-3-yl)methyl)-4-(piperidin-1-yl)isoquinolin-6-amine]	40 to 100 µM	> 40 µM
CN1CCC(CNc2ccc(CNc3ccc4c[nH]c(=O)cc4c3)cn2)CC1 [Example 1201, 6-(((6-(((1-methylpiperidin-4-yl)methyl)amino)pyridin-3-yl)methyl)amino)isoquinolin-3(2H)-one]	40 to 100 µM	> 40 µM
Cc1cnc2[nH]ccc2c1NCc1ccc(NCC2CCN(C)CC2)nc1 [Example 1205, 5-methyl-N-((6-(((1-methylpiperidin-4-yl)methyl)amino)pyridin-3-yl)methyl)-1H-pyrrolo[2,3-b]pyridin-4-amine]	10 to 40 µM	> 100 µM
CN1CCC(CNc2ccc(CNc3c(F)cnc4[nH]ccc34)cn2)CC1 [Example 1206, 5-fluoro-N-((6-(((1-methylpiperidin-4-yl)methyl)amino)pyridin-3-yl)methyl)-1H-pyrrolo[2,3-b]pyridin-4-amine]	40 to 100 µM	> 100 µM
CN1CCC(CNc2ccc(CNc3cc(F)c4cnccc4c3)cn2)CC1 [Example 1207, 8-fluoro-N-((6-(((1-methylpiperidin-4-yl)methyl)amino)pyridin-3-yl)methyl)isoquinolin-6-amine]	40 to 100 µM	> 100 µM
CN1CCC(CNc2ccc(CNc3cc(CO)c4cnccc4c3)cn2)CC1 [Example 1211, (6-(((6-(((1-methylpiperidin-4-yl)methyl)amino)pyridin-3-yl)methyl)amino)isoquinolin-8-yl)methanol]	10 to 40 µM	10 to 40 µM
COc1ccc2c(NCc3ccc(NCC4CCN(C)CC4)nc3)ccnc2c1 [Example 1217, 7-methoxy-N-((6-(((1-methylpiperidin-4-yl)methyl)amino)pyridin-3-yl)methyl)quinolin-4-amine]	40 to 100 µM	> 40 µM
CN1CCC(CNc2ccc(CNc3nccc4[nH]ccc34)cn2)CC1 [Example 1223, N-((6-(((1-methylpiperidin-4-yl)methyl)amino)pyridin-3-yl)methyl)-1H-pyrrolo[3,2-c]pyridin-4-amine]	40 to 100 µM	> 40 µM
CN1CCC(CNc2ccc(CNc3cc(F)c4c(N)nccc4c3)cn2)CC1 [Example 1245, 8-fluoro-N6-((6-(((1-methylpiperidin-4-yl)methyl)amino)pyridin-3-yl)methyl)isoquinoline-1,6-diamine]	3 to 10 µM	3 to 10 µM

The remaining lines, values ahead:

IC50 (Human Factor XIIa)	IC50 (Plasma Kallikrein)	SMILES
3 to 10 µM	> 40 µM	Nc1nccc2c(NCc3ccc(N4Cc5nccn5C(CO)C4)nc3)cccc12 (stereo not shown) [Example 1133, (7-(5-(((1-aminoisoquinolin-5-yl)amino)methyl)pyridin-2-yl)-5,6,7,8-tetrahydroimidazo[1,2-a]pyrazin-5-yl)methanol]
3 to 10 µM	> 40 µM	CC(C)(O)C1CN(c2ccc(CNc3cccc4c(N)nccc34)cn2)Cc2nccn21 (stereo not shown) [Example 1135, 2-(7-(5-(((1-aminoisoquinolin-5-yl)amino)methyl)pyridin-2-yl)-5,6,7,8-tetrahydroimidazo[1,2-a]pyrazin-5-yl)propan-2-ol]
1 to 3 µM	> 40 µM	Nc1nccc2c(NCc3ccc(N4Cc5nccn5CC4CO)nc3)cccc12 (stereo not shown) [Example 1137, (7-(5-(((1-aminoisoquinolin-5-yl)amino)methyl)pyridin-2-yl)-5,6,7,8-tetrahydroimidazo[1,2-a]pyrazin-6-yl)methanol]
3 to 10 µM	> 40 µM	Nc1nccc2c(NCc3ccc(N4CCn5ccnc5C4CO)nc3)cccc12 (stereo not shown) [Example 1140, (7-(5-(((1-aminoisoquinolin-5-yl)amino)methyl)pyridin-2-yl)-5,6,7,8-tetrahydroimidazo[1,2-a]pyrazin-8-yl)methanol]
0.3 to 1 µM	> 40 µM	CC1c2nccn2CCN1c1ccc(CNc2cccc3c(N)nccc23)cn1 (stereo not shown) [Example 1150, N5-((6-(8-methyl-5,6-dihydroimidazo[1,2-a]pyrazin-7(8H)-yl)pyridin-3-yl)methyl)isoquinoline-1,5-diamine]
3 to 10 µM	> 40 µM	CC(C)(O)c1cn2c(n1)CN(c1ccc(CNc3cccc4c(N)nccc34)cn1)CC2 [Example 1163, 2-(7-(5-(((1-aminoisoquinolin-5-yl)amino)methyl)pyridin-2-yl)-5,6,7,8-tetrahydroimidazo[1,2-a]pyrazin-2-yl)propan-2-ol]
3 to 10 µM	> 40 µM	CC(C)(O)c1cnc2n1CCN(c1ccc(CNc3cccc4c(N)nccc34)cn1)C2 [Example 1167, 2-(7-(5-(((1-aminoisoquinolin-5-yl)amino)methyl)pyridin-2-yl)-5,6,7,8-tetrahydroimidazo[1,2-a]pyrazin-3-yl)propan-2-ol]
3 to 10 µM	> 40 µM	CC(C)(O)[C@H]1CCN(c2ccc(CNc3ccc4c(N)ncc(Cl)c4c3)cn2)C1 [Example 1176, 2-[(3S)-1-(5-{[(1-amino-4-chloroisoquinolin-6-yl)amino]methyl}pyridin-2-yl)pyrrolidin-3-yl]propan-2-ol]
0.1 to 0.3 µM	3 to 10 µM	CN1CCC(CNc2ccc(CNc3ccc4c(N)ncc(Cl)c4c3)cn2)CC1 [Example 1193, 4-chloro-N6-((6-(((1-methylpiperidin-4-yl)methyl)amino)pyridin-3-yl)methyl)isoquinoline-1,6-diamine]
3 to 10 µM	> 40 µM	CN1CCC(CNc2ccc(CNc3cccc4c(N)ncc(F)c34)cn2)CC1 [Example 1194, 4-fluoro-N5-((6-(((1-methylpiperidin-4-yl)methyl)amino)pyridin-3-yl)methyl)isoquinoline-1,5-diamine]
0.1 to 0.3 µM	3 to 10 µM	CN1CCC(CNc2ccc(CNc3ccc4c(N)ncc(F)c4c3)cn2)CC1 [Example 1195, 4-fluoro-N6-((6-(((1-methylpiperidin-4-yl)methyl)amino)pyridin-3-yl)methyl)isoquinoline-1,6-diamine]
1 to 3 µM	3 to 10 µM	CN1CCC(CNc2ccc(CNc3cc4ccnc(N)c4cn3)cn2)CC1 [Example 1196, N6-((6-(((1-methylpiperidin-4-yl)methyl)amino)pyridin-3-yl)methyl)-2,7-naphthyridine-1,6-diamine]
3 to 10 µM	> 40 µM	CN1CCC(CNc2ccc(CNc3cc(Cl)c4cnccc4c3)cn2)CC1 [Example 1208, 8-chloro-N-((6-(((1-methylpiperidin-4-yl)methyl)amino)pyridin-3-yl)methyl)isoquinolin-6-amine]
3 to 10 µM	> 100 µM	CNc1cc(NCc2ccc(NCC3CCN(C)CC3)nc2)ccn1 [Example 1219, N2-Methyl-N4-((6-(((1-methylpiperidin-4-yl)methyl)amino)pyridin-3-yl)methyl)pyridine-2,4-diamine]
3 to 10 µM	> 100 µM	Cc1c[nH]c2nccc(NCc3ccc(NCC4CCN(C)CC4)nc3)c12 [Example 1226, 3-methyl-N-((6-(((1-methylpiperidin-4-yl)methyl)amino)pyridin-3-yl)methyl)-1H-pyrrolo[2,3-b]pyridin-4-amine]
0.3 to 1 µM	10 to 40 µM	Cc1cc2c(NCc3ccc(NCC4CCN(C)CC4)nc3)cncc2[nH]1 [Example 1232, 2-Methyl-N-((6-(((1-methylpiperidin-4-yl)methyl)amino)pyridin-3-yl)methyl)-1H-pyrrolo[2,3-c]pyridin-4-amine]
